Data on 46 molecules can be found in ChEMBL document CHEMBL3046641, “QSAR study of some CCR5 antagonists as anti-HIV agents using radial basis function neural network and general regression neural network on the basis of principal components” (Med Chem Res, 2012).

SMILES strings stand for the structures.

Sequence of C-C chemokine receptor type 5 (P51681 whole entry): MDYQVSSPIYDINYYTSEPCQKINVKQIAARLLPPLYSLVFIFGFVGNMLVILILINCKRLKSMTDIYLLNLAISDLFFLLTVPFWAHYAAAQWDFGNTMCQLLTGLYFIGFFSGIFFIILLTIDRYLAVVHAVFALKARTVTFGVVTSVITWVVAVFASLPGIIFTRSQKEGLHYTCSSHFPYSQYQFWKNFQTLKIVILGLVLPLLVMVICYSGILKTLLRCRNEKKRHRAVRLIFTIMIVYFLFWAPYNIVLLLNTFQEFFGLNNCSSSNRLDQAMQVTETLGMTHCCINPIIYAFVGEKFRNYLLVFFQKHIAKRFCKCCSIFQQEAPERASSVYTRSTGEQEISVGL

The experiment concerns the target C-C chemokine receptor type 5 (Homo sapiens, UniProt P51681). Put plainly: Antagonist activity at Homo sapiens (human) CCR5 receptor.
`CN(C[C@@H](CCN1CCC2(CC1)C[S+]([O-])c1ccccc12)c1ccc(Cl)c(Cl)c1)S(=O)(=O)c1cncc2ccccc12` (stereo partly specified) showed an IC50 of 1000 nM.
Consider `CN(C[C@@H](CCN1CCC2(CC1)C[S+]([O-])c1ccccc12)c1ccc(Cl)c(Cl)c1)S(=O)(=O)c1cn(C)cn1` (stereo partly specified), for which the IC50 is 1000 nM. This counts as single-digit micromolar.
`CN(C[C@@H](CCN1CCC2(CC1)CNC(=O)c1ccccc12)c1ccc(Cl)c(Cl)c1)S(=O)(=O)c1cccc([N+](=O)[O-])c1` showed an IC50 of 600 nM.
To `CN(C[C@@H](CCN1CCC2(CC1)CC(=O)Nc1ccccc12)c1ccc(Cl)c(Cl)c1)S(=O)(=O)c1cccc([N+](=O)[O-])c1` belongs 7000 nM.
The molecule `CN(C[C@@H](CCN1CCC2(CC1)C[S+]([O-])c1ccccc12)c1ccc(Cl)c(Cl)c1)S(=O)(=O)c1ccc2c(c1)CCC2` (stereo partly specified) showed an IC50 of 5900 nM. This IC50 and that of the molecule before are within 1.5-fold of each other.
To `CN(C[C@@H](CCN1CCC2(CC1)NC(=O)c1ccccc12)c1cccc(Cl)c1)S(=O)(=O)c1ccccc1` belongs 300 nM; to `CN(C[C@@H](CCN1CCC(CCCc2ccccc2)CC1)c1cccc(Cl)c1)S(=O)(=O)c1ccccc1`, 50 nM; to `CN(C[C@@H](CCN1CCC(c2ccccc2)CC1)c1cccc(Cl)c1)S(=O)(=O)c1ccccc1`, 10000 nM.
Molecule `CN(C[C@@H](CCN1CCC2(CC1)CNc1ccccc12)c1cccc(Cl)c1)S(=O)(=O)c1ccccc1` showed an IC50 of 1200 nM.
The molecule `CN(C[C@@H](CCN1CCC2(CC1)CS(=O)(=O)c1ccccc12)c1ccc(Cl)c(Cl)c1)S(=O)(=O)c1ccc([N+](=O)[O-])cc1` had an IC50 of 700 nM. This IC50 is about 1.7-fold lower than that of the molecule before.
As to `CN(C[C@@H](CCN1CCC2(CC1)CS(=O)(=O)c1ccccc12)c1ccc(Cl)c(Cl)c1)S(=O)(=O)c1cccc([N+](=O)[O-])c1`, the IC50 was 800 nM.
Molecule `CN(C[C@@H](CCN1CCC2(CC1)C[S+]([O-])c1ccccc12)c1ccc(Cl)c(Cl)c1)S(=O)(=O)c1cccc2cccnc12` (stereo partly specified) had a 50% inhibitory concentration (IC50) of 14000 nM.
In the case of `CN(C[C@@H](CCN1CCC2(CC1)C[S+]([O-])c1ccccc12)c1ccc(Cl)c(Cl)c1)S(=O)(=O)c1ccc2ccccc2c1` (stereo partly specified), half-maximal inhibition (IC50) was put at 3400 nM.
The molecule `CN(C[C@@H](CCN1CCC2(CC1)C[S+]([O-])c1ccccc12)c1ccc(Cl)c(Cl)c1)S(=O)(=O)c1cccc2ccccc12` (stereo partly specified) gave an IC50 of 2600 nM. This IC50 and that of the molecule before are within 1.5-fold of each other.
To `CN(C[C@@H](CCN1CCC2(CC1)C[S+]([O-])c1ccccc12)c1ccc(Cl)c(Cl)c1)S(=O)(=O)c1ccc(-c2ccccc2)cc1` (stereo partly specified) belongs 1000 nM; to `CN(C[C@@H](CCN1CCC2(CC1)CSc1ccccc12)c1ccc(Cl)c(Cl)c1)S(=O)(=O)c1ccccc1`, 400 nM; to `CN(C[C@@H](CCN1CCC2(CC1)CS(=O)(=O)c1ccccc12)c1ccc(Cl)c(Cl)c1)S(=O)(=O)c1ccccc1`, 400 nM.
To `COc1ccccc1C1CCN(CC[C@H](CN(C)S(=O)(=O)c2ccccc2)c2cccc(Cl)c2)CC1` belongs 1000 nM.
Regarding `Cc1ccccc1N1CCN(CC[C@H](CN(C)S(=O)(=O)c2ccccc2)c2cccc(Cl)c2)CC1`, the midpoint of inhibition, the IC50, lay at 350 nM. This IC50 is about 2.9-fold lower than that of the molecule before.
Take `CN(C[C@@H](CCN1CCC2(CC1)CC(O)c1ccccc12)c1cccc(Cl)c1)S(=O)(=O)c1ccccc1` (stereo partly specified): the IC50 was 24000 nM.
On to `CN(C[C@@H](CCN1CCC2(CC1)CSc1ccccc12)c1cccc(Cl)c1)S(=O)(=O)c1ccccc1`, for which the IC50 is 600 nM.
With `CN(C[C@@H](CCN1CCC(Cc2ccccc2)CC1)c1cccc(Cl)c1)S(=O)(=O)c1ccccc1`, half-maximal inhibition (IC50) was put at 650 nM.
For the molecule `CN(C[C@@H](CCN1CCC(c2cccc(C(F)(F)F)c2)CC1)c1cccc(Cl)c1)S(=O)(=O)c1ccccc1`, the IC50 is 2000 nM.
`CN(C[C@@H](CCN1CCC2(CC1)CC(=O)c1ccccc12)c1cccc(Cl)c1)S(=O)(=O)c1ccccc1`: the IC50 was 3400 nM. This IC50 lies about 1.7-fold higher than the previous one.
Consider `CN(C[C@@H](CCN1CCC2(CC1)CS(=O)(=O)c1ccccc12)c1cccc(Cl)c1)S(=O)(=O)c1ccccc1`, for which the IC50 was 1000 nM.
To `CN(C[C@@H](CCN1CCC2(CC1)C[S+]([O-])c1ccccc12)c1cccc(Cl)c1)S(=O)(=O)c1ccccc1` (stereo partly specified) belongs 700 nM.
In turn, `CN1C(=O)c2ccccc2C12CCN(CC[C@H](CN(C)S(=O)(=O)c1ccccc1)c1cccc(Cl)c1)CC2` had an IC50 of 1500 nM.
For `CN(C[C@@H](CCN1CCC2(CC1)Cc1ccccc1O2)c1cccc(Cl)c1)S(=O)(=O)c1ccccc1`, the IC50 is 4000 nM.
For `CN(C[C@@H](CCN1CCC(CCc2ccccc2)CC1)c1cccc(Cl)c1)S(=O)(=O)c1ccccc1`, half-maximal inhibition (IC50) was put at 600 nM.
`CN(C[C@@H](CCN1CCC(c2ccc(F)cc2)CC1)c1cccc(Cl)c1)S(=O)(=O)c1ccccc1` had an IC50 of 2500 nM.
With `CN(C[C@@H](CCN1CCC(c2ccc(Cl)cc2)CC1)c1cccc(Cl)c1)S(=O)(=O)c1ccccc1`, inhibition was half-maximal at 250 nM (IC50).
With `Cc1ccccc1C1CCN(CC[C@H](CN(C)S(=O)(=O)c2ccccc2)c2cccc(Cl)c2)CC1` the figure was 1200 nM.
Regarding `CN(C[C@@H](CCN1CCC2(CCc3ccccc32)CC1)c1cccc(Cl)c1)S(=O)(=O)c1ccccc1`, the IC50 was 899 nM.
For the molecule `COc1ccc(S(=O)(=O)N(C)C[C@@H](CCN2CCC3(CC2)C[S+]([O-])c2ccccc23)c2ccc(Cl)c(Cl)c2)cc1` (stereo partly specified), the IC50 was 350 nM.
`CN(C[C@@H](CCN1CCC2(CC1)C[S+]([O-])c1ccccc12)c1ccc(Cl)c(Cl)c1)S(=O)(=O)C1CCCC1` (stereo partly specified) showed an IC50 of 500 nM.
As to `CN(C[C@@H](CCN1CCC2(CC1)C[S+]([O-])c1ccccc12)c1ccc(Cl)c(Cl)c1)S(=O)(=O)Cc1ccccc1` (stereo partly specified), the IC50 is 100 nM. This IC50 is about 5-fold lower than that of the molecule before.
The molecule `CN(C[C@@H](CCN1CCC2(CC1)C[S+]([O-])c1ccccc12)c1ccc(Cl)c(Cl)c1)S(=O)(=O)c1ccccc1Cl` (stereo partly specified) had a half-inhibitory concentration (IC50) of 450 nM.
The molecule `CN(C[C@@H](CCN1CCC2(CC1)C[S+]([O-])c1ccccc12)c1ccc(Cl)c(Cl)c1)S(=O)(=O)c1cccc(Cl)c1` (stereo partly specified) showed an IC50 of 1000 nM.
Molecule `CN(C[C@@H](CCN1CCC2(CC1)C[S+]([O-])c1ccccc12)c1ccc(Cl)c(Cl)c1)S(=O)(=O)C1CCCCC1` (stereo partly specified) gave an IC50 of 50 nM.
To `CN(C[C@@H](CCN1CCC2(CC1)CS(=O)(=O)c1ccccc12)c1ccc(Cl)c(Cl)c1)S(=O)(=O)c1cccs1` belongs 1200 nM; to `CN(C[C@@H](CCN1CCC2(CC1)C[S+]([O-])c1ccccc12)c1ccc(Cl)c(Cl)c1)S(=O)(=O)c1cccnc1` (stereo partly specified), 8490 nM.
For the molecule `CN(C[C@@H](CCN1CCC2(CC1)C[S+]([O-])c1ccccc12)c1ccc(Cl)c(Cl)c1)S(C)(=O)=O` (stereo partly specified), the IC50 was 150 nM. Compared with the last molecule, the IC50 is about 57-fold lower.
`CN(C[C@@H](CCN1CCC2(CC1)C[S+]([O-])c1ccccc12)c1ccc(Cl)c(Cl)c1)S(=O)(=O)c1cccs1` (stereo partly specified) had an IC50 of 3600 nM.
As to `CN(C)S(=O)(=O)N(C)C[C@@H](CCN1CCC2(CC1)C[S+]([O-])c1ccccc12)c1ccc(Cl)c(Cl)c1` (stereo partly specified), half-maximal inhibition (IC50) required 2700 nM.
With `CN(C[C@@H](CCN1CCC2(CC1)C[S+]([O-])c1ccccc12)c1ccc(Cl)c(Cl)c1)S(=O)(=O)c1ccc(Cl)cc1` (stereo partly specified), the 50% inhibitory concentration (IC50) was 350 nM.
The molecule `CCCCCCCCS(=O)(=O)N(C)C[C@@H](CCN1CCC2(CC1)C[S+]([O-])c1ccccc12)c1ccc(Cl)c(Cl)c1` (stereo partly specified) had a half-inhibitory concentration (IC50) of 1800 nM.
